Settings: for surface tension liquid-gas: Maximal bubble pressure; for mass density: 101.33 kPa, Liquid, Buoyancy - hydrostatic balance

CCCCCCCn1cc[n+](C)c1.[Br-] [1-heptyl-3-methylimidazolium bromide]
Settings | mass density [kg/m3] | surface tension liquid-gas [mN/m]
293.15 K | 1249 | 37.8
298.15 K | 1245.9 | 37.5
303.15 K | 1242.3 | 37.2
308.15 K | 1239.1 | 36.8
313.15 K | 1236 | 36.5
318.15 K | 1232.8 | 36.1
323.15 K | 1229.7 | 35.9
328.15 K | 1226.4 | 35.6
333.15 K | 1222.8 | 35.3
338.15 K | 1219.9 | 35
343.15 K | 1216.6 | 34.6
